Experimental data as given in PubChem BioAssay AID248 (DTP/NCI, 2004).
Values joined by “and” are separate entries in the source; they are usually repeats but may differ in a detail not shown here. Equal values may be shown once. Toxic doses and inconclusive results are not listed. Cut-off read from the data, not from the text of the source: active = T/C of 150% or more; inactive = T/C below 125%.

Test system: L1210 leukemia ip in BDF1 mice, survival T/C
Test: NCI In Vivo Anticancer Drug Screen. Data for tumor model L1210 Leukemia (intraperitoneal) in B6D2F1 (BDF1) mice
Conditions: higher = longer survival
Outline: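 Read-out is survival time, reported as the treated-group measurement over the vehicle-control measurement.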

[1] = endpoint: mean survival time, dose: 100.0 mg/kg/injection, schedule: Q04DX002 (ip), vehicle: Klucel (hydroxypropylcellulose) (HPC)
[2] = endpoint: mean survival time, dose: 200.0 mg/kg/injection, schedule: Q04DX002 (ip), vehicle: Klucel (hydroxypropylcellulose) (HPC)
[3] = endpoint: mean survival time, dose: 100.0 mg/kg/injection, schedule: Q04DX003 (ip), vehicle: Klucel (hydroxypropylcellulose) (HPC)
[4] = endpoint: mean survival time, dose: 50.0 mg/kg/injection, schedule: Q01DX009 (ip), vehicle: saline
[5] = endpoint: mean survival time, dose: 50.0 mg/kg/injection, schedule: Q04DX003 (ip), vehicle: saline
[6] = endpoint: mean survival time, dose: 100.0 mg/kg/injection, schedule: Q04DX003 (ip), vehicle: saline
[7] = endpoint: mean survival time, dose: 100.0 mg/kg/injection, schedule: Q04DX003 (ip), vehicle: saline with Tween-80
[8] = endpoint: mean survival time, dose: 100.0 mg/kg/injection, schedule: Q01DX001 (ip), vehicle: saline
[9] = endpoint: mean survival time, dose: 200.0 mg/kg/injection, schedule: Q01DX001 (ip), vehicle: saline
[10] = endpoint: mean survival time, dose: 400.0 mg/kg/injection, schedule: Q04DX002 (ip), vehicle: Klucel (hydroxypropylcellulose) (HPC)
[11] = endpoint: mean survival time, dose: 200.0 mg/kg/injection, schedule: Q04DX003 (ip), vehicle: saline
[12] = endpoint: mean survival time, dose: 100.0 mg/kg/injection, schedule: Q01DX001 (ip), vehicle: Klucel (hydroxypropylcellulose) (HPC)
[13] = endpoint: mean survival time, dose: 200.0 mg/kg/injection, schedule: Q01DX001 (ip), vehicle: Klucel (hydroxypropylcellulose) (HPC)
[14] = endpoint: mean survival time, dose: 400.0 mg/kg/injection, schedule: Q01DX001 (ip), vehicle: Klucel (hydroxypropylcellulose) (HPC)

Measured: T/C

C=C1CC(c2ccc(S(=O)(=O)N3CCCC3)cc2)OC1=O (centres undefined)
inactive: [1] 95 % of control | [2] 98 % of control

O=[N+]([O-])c1ccc(N=C=S)cc1
inactive: endpoint: mean survival time, dose: 25.0 mg/kg/injection, schedule: Q04DX003 (ip), vehicle: Klucel (hydroxypropylcellulose) (HPC) 95 % of control | endpoint: mean survival time, dose: 50.0 mg/kg/injection, schedule: Q04DX003 (ip), vehicle: Klucel (hydroxypropylcellulose) (HPC) 95 % of control | [3] 93 % of control

O=C(OC(=O)C1CC1)C1CC1
inactive: endpoint: mean survival time, dose: 12.5 mg/kg/injection, schedule: Q01DX009 (ip), vehicle: saline 96 % of control | endpoint: mean survival time, dose: 25.0 mg/kg/injection, schedule: Q01DX009 (ip), vehicle: saline 92 % of control | endpoint: mean survival time, dose: 25.0 mg/kg/injection, schedule: Q04DX003 (ip), vehicle: saline 90 % of control | [4] 96 % of control and 111 % of control | [5] 88 % of control | [6] 96 % of control and 101 % of control

CCS[S+](CC)CC
inactive: endpoint: mean survival time, dose: 6.25 mg/kg/injection, schedule: Q01DX009 (ip), vehicle: saline with Tween-80 98 % of control | endpoint: mean survival time, dose: 12.5 mg/kg/injection, schedule: Q01DX009 (ip), vehicle: saline with Tween-80 102 % of control

CN(C)N=Nc1ccc(C(N)=O)cc1
inactive: endpoint: mean survival time, dose: 30.0 mg/kg/injection, schedule: Q01DX Z (ip), vehicle: other 108 % of control | endpoint: mean survival time, dose: 40.0 mg/kg/injection, schedule: Q01DX Z (ip), vehicle: other 111 % of control | endpoint: mean survival time, dose: 60.0 mg/kg/injection, schedule: Q01DX Z (ip), vehicle: other 121 % of control | endpoint: median survival time, dose: 65.0 mg/kg/injection, schedule: Q01DX001 (ip), vehicle: steriod suspending solution 100 % of control | endpoint: median survival time, dose: 65.0 mg/kg/injection, schedule: Q01DX009 (ip), vehicle: steriod suspending solution 105 % of control | endpoint: median survival time, dose: 108.0 mg/kg/injection, schedule: Q01DX001 (ip), vehicle: steriod suspending solution 100 % of control | endpoint: median survival time, dose: 180.0 mg/kg/injection, schedule: Q04DX003 (ip), vehicle: steriod suspending solution 105 % of control | endpoint: median survival time, dose: 300.0 mg/kg/injection, schedule: Q01DX001 (ip), vehicle: steriod suspending solution 100 % of control

CC1NC=NC1C(c1ccccc1)c1ccccc1 (centres undefined)
inactive: [7] 101 % of control

O=C(O)c1ccc(OCc2ccccc2)c(Br)c1
inactive: endpoint: mean survival time, dose: 100.0 mg/kg/injection, schedule: Q01DX001 (ip), vehicle: saline with Tween-80 97 % of control | endpoint: mean survival time, dose: 200.0 mg/kg/injection, schedule: Q01DX001 (ip), vehicle: saline with Tween-80 104 % of control | endpoint: mean survival time, dose: 400.0 mg/kg/injection, schedule: Q01DX001 (ip), vehicle: saline with Tween-80 98 % of control

CCc1cc2c(cc1C(=O)/C=C\C(=O)O)C(C)(C)CCC2(C)C
inactive: endpoint: mean survival time, dose: 0.5 mg/kg/injection, schedule: Q01DX001 (ip), vehicle: saline 96 % of control | endpoint: mean survival time, dose: 1.0 mg/kg/injection, schedule: Q01DX001 (ip), vehicle: saline 100 % of control | endpoint: mean survival time, dose: 2.0 mg/kg/injection, schedule: Q01DX001 (ip), vehicle: saline 98 % of control | endpoint: mean survival time, dose: 2.97 mg/kg/injection, schedule: Q01DX001 (ip), vehicle: saline 100 % of control | endpoint: mean survival time, dose: 3.75 mg/kg/injection, schedule: Q01DX009 (ip), vehicle: saline with Tween-80 98 % of control | endpoint: mean survival time, dose: 3.75 mg/kg/injection, schedule: Q04DX003 (ip), vehicle: acetone 101 % of control | endpoint: mean survival time, dose: 4.5 mg/kg/injection, schedule: Q01DX001 (ip), vehicle: saline 104 % of control | endpoint: mean survival time, dose: 6.75 mg/kg/injection, schedule: Q01DX001 (ip), vehicle: saline 104 % of control | endpoint: mean survival time, dose: 7.5 mg/kg/injection, schedule: Q01DX009 (ip), vehicle: saline with Tween-80 94 % of control | endpoint: mean survival time, dose: 7.5 mg/kg/injection, schedule: Q04DX003 (ip), vehicle: acetone 108 % of control | endpoint: mean survival time, dose: 9.9 mg/kg/injection, schedule: Q01DX001 (ip), vehicle: saline 96 % of control | endpoint: mean survival time, dose: 15.0 mg/kg/injection, schedule: Q01DX001 (ip), vehicle: saline 98 % of control | endpoint: mean survival time, dose: 15.0 mg/kg/injection, schedule: Q04DX003 (ip), vehicle: acetone 98 % of control

O=[N+]([O-])c1ccc(C2SCSCS2)cc1
inactive: [3] 98 % of control | endpoint: mean survival time, dose: 200.0 mg/kg/injection, schedule: Q01DX009 (ip), vehicle: Klucel (hydroxypropylcellulose) (HPC) 90 % of control | endpoint: mean survival time, dose: 200.0 mg/kg/injection, schedule: Q04DX003 (ip), vehicle: Klucel (hydroxypropylcellulose) (HPC) 93 % of control | endpoint: mean survival time, dose: 400.0 mg/kg/injection, schedule: Q01DX009 (ip), vehicle: Klucel (hydroxypropylcellulose) (HPC) 95 % of control | endpoint: mean survival time, dose: 400.0 mg/kg/injection, schedule: Q04DX003 (ip), vehicle: Klucel (hydroxypropylcellulose) (HPC) 93 % of control

O=C(N/N=C\c1cc(=O)[nH]c(=O)[nH]1)c1ccncc1
inactive: endpoint: mean survival time, dose: 50.0 mg/kg/injection, schedule: Q01DX001 (ip), vehicle: saline 90 % of control | [8] 95 % of control | [9] 95 % of control

NC(=O)CSc1cc(Cl)ccc1Cl
inactive: endpoint: mean survival time, dose: 100.0 mg/kg/injection, schedule: Q01DX001 (ip), vehicle: other 96 % of control | endpoint: mean survival time, dose: 200.0 mg/kg/injection, schedule: Q01DX001 (ip), vehicle: other 107 % of control | endpoint: mean survival time, dose: 400.0 mg/kg/injection, schedule: Q01DX001 (ip), vehicle: other 113 % of control

CCOC(=O)C(C#N)C(C)CC#N (centres undefined)
inactive: endpoint: mean survival time, dose: 100.0 mg/kg/injection, schedule: Q01DX009 (ip), vehicle: saline with Tween-80 119 % of control | endpoint: mean survival time, dose: 200.0 mg/kg/injection, schedule: Q01DX009 (ip), vehicle: saline with Tween-80 117 % of control | endpoint: mean survival time, dose: 400.0 mg/kg/injection, schedule: Q01DX009 (ip), vehicle: saline with Tween-80 108 % of control

CC(=O)Nc1cccc(Cl)c1F
inactive: [1] 100 % of control | [2] 93 % of control | [10] 107 % of control

CC(SS(=O)(=O)O)C(N)=NCc1ccccc1 (centres undefined)
inactive: endpoint: mean survival time, dose: 25.0 mg/kg/injection, schedule: Q04DX002 (ip), vehicle: Klucel (hydroxypropylcellulose) (HPC) 94 % of control | endpoint: mean survival time, dose: 50.0 mg/kg/injection, schedule: Q04DX002 (ip), vehicle: Klucel (hydroxypropylcellulose) (HPC) 108 % of control | [1] 98 % of control

Cc1ccc(S(=O)(=O)C[n+]2cc(C)cc(C)c2)cc1
inactive: [6] 95 % of control | [11] 103 % of control

CSc1ncc2c(=O)n(C)[nH]c2n1
inactive: [12] 93 % of control | [13] 92 % of control | [14] 90 % of control

O=C1CCSC(=S)N1c1ccc(Cl)c(Cl)c1
inactive: endpoint: mean survival time, dose: 25.0 mg/kg/injection, schedule: Q04DX003 (ip), vehicle: saline with Tween-80 101 % of control | endpoint: mean survival time, dose: 50.0 mg/kg/injection, schedule: Q04DX003 (ip), vehicle: saline with Tween-80 101 % of control | [7] 104 % of control

ClC1(Cl)C2CCCCC21N1CCCCC1 (centres undefined)
inactive: [4] 102 % of control | [5] 115 % of control | [8] 104 % of control | endpoint: mean survival time, dose: 100.0 mg/kg/injection, schedule: Q01DX009 (ip), vehicle: saline 87 % of control | [6] 94 % of control | [9] 98 % of control | [11] 101 % of control

O=C(CCl)Nc1ccc(C(=O)O)cc1
inactive: endpoint: mean survival time, dose: 3.0 mg/kg/injection, schedule: Q01DX Z (ip), vehicle: carboxymethylcellulose (CMC) 96 % of control | endpoint: mean survival time, dose: 7.0 mg/kg/injection, schedule: Q01DX Z (ip), vehicle: carboxymethylcellulose (CMC) 102 % of control | endpoint: mean survival time, dose: 15.0 mg/kg/injection, schedule: Q01DX Z (ip), vehicle: carboxymethylcellulose (CMC) 88 % of control | endpoint: mean survival time, dose: 30.0 mg/kg/injection, schedule: Q01DX Z (ip), vehicle: carboxymethylcellulose (CMC) 104 % of control

CN1CCC/C1=N\c1nn[nH]n1
inactive: [12] 106 % of control | [13] 97 % of control | [14] 93 % of control

O=c1[nH]cnc2c1ncn2Cc1cccc2ccccc12
inactive: [1] 94 % of control | [2] 94 % of control | [10] 94 % of control

CC(C)(CO)Nc1ccccc1
inactive: [7] 114 % of control | endpoint: mean survival time, dose: 200.0 mg/kg/injection, schedule: Q04DX003 (ip), vehicle: saline with Tween-80 90 % of control | endpoint: mean survival time, dose: 400.0 mg/kg/injection, schedule: Q04DX003 (ip), vehicle: saline with Tween-80 97 % of control

COC(=O)CCC(NC(=O)C1CSC(C)(C)N1C=O)C(=O)OC (centres undefined)
inactive: [6] 104 % of control | [11] 101 % of control | endpoint: mean survival time, dose: 400.0 mg/kg/injection, schedule: Q04DX003 (ip), vehicle: saline 101 % of control
